The values that follow come from US12070452B2, “Compounds targeting HSP110 protein for cancer treatment” (INSERM (Institut National de la Santé et de la Recherche …, priority 2018, dated 2024).

One assay addresses T1, HSP110:STAT3 complex (Homo sapiens, UniProt Q92598).
T1 construct: disrupting HSP110:STAT3 complex within the cell using human colorectal SW480 cancer cells; endogenous in cells; host or cells: SW480 cells carrying control shRNA (shCtrl); sh110 cells as HSP110-depleted control
As to the kind of experiment: Immunoprecipitation of HSP110:STAT3 complex in SW480 cells. The format is cell-based. The conditions noted are these: SW480 shCtrl cells, 10 μM, 48 h. Here is the method: FIG. 2A: Immunoprecipitation (IP) analysis of HSP110 protein (first line), STAT3 protein (second line) compared with total Immunoglobuline (Ig) and actin in SW480 cells treated with (from left to the right column) non-relevant antibody as control (called NT a Normal rabbit IgG (sc-2027) from Santa Cruz Biotechnologies), compound 52 (related to formula (III)), compound 33 (related to formula (II)), compound 51 (related to formula (IV)) and comparative compound 61 at a concentration of 10 μM during 48 h on shCtrl cells transfected with shRNA for shRNA control (referenced ShCtrl IP:STAT3 for the five first columns) or HSP110-silencing (sh110) (referenced sh110-IP:STAT3 for the two last columns) (from the left to the right columns). Immunoprecipitation analysis of HSP110 (first line), STAT3 (second line) compared with total Ig and actin (second blot in the right) is observed with shCtrl cells transfected with shRNA for shRNA control (shCtrl) or HSP110-silencing (sh110) (left to right columns).
FIG. 2B: Quantification of HSP110:STAT3 disruption in percentage considering the total amount of HSP110 protein normalized by the signal intensity of the Ig band of FIG. 1 panel A. (Ordinate: Percentage of STAT3:HSP110 protein interaction (scale 50)). The histogram measured quantification in percentage for ShCtrl IP: STAT3 treated with Ctrl, compounds 52, 33, 51 and comparative compound 61, and for shCtrl cells transfected with shRNA for shRNA control referenced ShCtrl IP: STAT3) or HSP110-silencing (sh110) (referenced sh110-IP: STAT3) (from the left to the right column)
(§1) Immunoprecipitation test were realized on human colorectal cancer cells (SW480 and HCT116 cell lines), using a control depleted in HSP110 called Sh110 and a not depleted cells in HSP110. STAT3 phosphorylation is then […] by compounds 33 and 52. Depletion of HSP110 in the negative control blocked the phosphorylation of STAT3 without affecting STAT3 overall levels (FIGS. 2 and 3).

The test system of the next assay is phosphorylated STAT3. As to the kind of experiment: P-STAT3 level in SW480 cells (immunoblot quantification). The format is cell-based, human. The conditions noted are these: 10 μM, 48 h, normalized by actin. As for the experimental part: Results for SW480 cells treated during 48 h with non-relevant antibody (called NT), compound 52, compound 33, compound 51 and comparative compound 61 at 10 μM, and sh110 cells correspond to the third fourth, fifth, sixth and last columns from the left to the right.
FIG. 3B: Quantification of P-STAT3 level (in percentage) normalized by actin. […] (Ordinate: Percentage of P-STAT3 level (scale 50)
as §1

A further assay concerns the target T2, human protein HSP110 (Homo sapiens, UniProt Q92598).
T2 construct: DNA coding the NBD-HSP110 (from human-HSP110)
Kind of assay: HSP110 anti-aggregation function (luciferase substrate test). The format is biochemical. The conditions noted are these: human HSP110 1.5 μM with firefly luciferase, 30 min at 42° C.; read-out: IC50 of HSP110 anti-aggregating activity. As for the experimental part: Anti-aggregation function of HSP110 was evaluated as described by O H et al (The Journal of biological chemistry 274, 15712-15718 (1999)). The human protein HSP110 (obtained as described above) at a concentration of 1.5 μM was incubated with firefly luciferase (from Sigma—from Photinus pyralis) in reaction buffer and heated in water bath for 30 min at 42° C.
Compounds of the present invention were added in reaction buffer to achieve the indicated concentrations and the final DMSO concentration was held constant at 1%. The heated reaction was diluted 10 times into buffer containing 60% of rabbit reticulocytelysate and incubated for 2 hours. The luciferase activity was measured by diluting 5 times the solution in HEPES and adding 5 μL of the solution in luciferase substrate (50 μL of Luciferase Assay System—Promega E1501 diluted in HEPES). The bioluminescence was reading with Envision Perkin Elmer.
The percentage of activity (x) was calculated by using the following equation: x=[(A−B)/(C−B)]×100, where (A) is the luciferase luminescence in presence of compounds of the invention, (B) in absence of HSP110 and (C) in presence of DMSO (Control). The percentage of total folding HSP110-promoted (mean=36%) was calculated considering as 100% the luminescence of luciferase incubated with HSP110 without heat shock. The IC50 were calculated from the dose-response curves, which were fitted by GraphPrism (Equation: Y=100/(1+10^((Log IC50−X)*HillSlope)).

Another assay has as its system CT26 cells. As to the kind of experiment: Flow cytometric analysis of cell death (Annexin V / 7-AAD) in CT26 cells. The format is cell-based, mouse. The conditions noted are these: 10 μM, 96 h. As for the experimental part:
FIG. 5A: Flow cytometric analysis of cell death in CT26 cells treated with the compound 33 (at the bottom left), compound 52 (at the bottom middle), comparative compound 61 (at the bottom right) at 10 μM during 96 h compared with Control (DMSO) (at the top left), and Cisplatin (at the top middle and top right). Live cells were double negative for 7-AAD (Y axis) and Annexin V (X axis), early apoptotic cells were positive for Annexin V, late apoptotic cells were positive for Annexin V and 7-AAD ([…]) and dead cells were positive for 7-AAD only.
FIG. 5B: Quantification of cell viability (in percentage) from flow cytometry data are represented (Control, cells, compounds 33, 52 and 61 from the left to the right bars). (Abscissa Negativity of 7-AAD; Ordinate Negativity of Annexin V).
We then analyzed cell death in CT26 cells treated with 10 μM during 96 h of compounds 33, 52 and 61 by flow cytometry. Cells were also treated with a well know anti-cancer compound, called cisplatin. Cells were marked for 7-aminoactinomycin D, which exclusively bind on death cells and for Annexin V, a well-known indicators of early stage apoptosis, thanks to its ability to bind to phosphatidylserine.

Another assay has as its target T3, HSP110/Myd88 interaction (Homo sapiens, UniProt Q92598).
T3 construct: endogenous in cells
As to the kind of experiment: Immunoprecipitation of HSP110/Myd88 in DLBCL cell line. The format is cell-based. The conditions noted are these: IP Myd88, Western Blot. The text has this: FIG. 10A: Immunoprecipitation (IP) analysis of HSP110 (first line), Myd88 (second line), heavy chains (third line) and actin (fourth line) in large B cell lymphoma cell lines (DLBCL).
Left part of FIG. 10A (“Inputs”): treated with (from left to right column of the left part of FIG. 10A) DMSO, compound 52 (5052), compound 33 (5033) and compound 61 (5061) (Negative control);
Middle part of FIG. 10A (“IP Myd88”): treated with (from left to right column of the middle part of FIG. 10A) DMSO, compound 52, compound 33 and compound 61 (as the negative control); Myd88 was immunoprecipitated with an antibody specifically directed against Myd88.
MyD88 was immuno-precipitated from the cell line which has been non-treated or treated with the HSP110 inhibitors.

T1 sequence (Q92598 2-858 limits assumed, one chain of several): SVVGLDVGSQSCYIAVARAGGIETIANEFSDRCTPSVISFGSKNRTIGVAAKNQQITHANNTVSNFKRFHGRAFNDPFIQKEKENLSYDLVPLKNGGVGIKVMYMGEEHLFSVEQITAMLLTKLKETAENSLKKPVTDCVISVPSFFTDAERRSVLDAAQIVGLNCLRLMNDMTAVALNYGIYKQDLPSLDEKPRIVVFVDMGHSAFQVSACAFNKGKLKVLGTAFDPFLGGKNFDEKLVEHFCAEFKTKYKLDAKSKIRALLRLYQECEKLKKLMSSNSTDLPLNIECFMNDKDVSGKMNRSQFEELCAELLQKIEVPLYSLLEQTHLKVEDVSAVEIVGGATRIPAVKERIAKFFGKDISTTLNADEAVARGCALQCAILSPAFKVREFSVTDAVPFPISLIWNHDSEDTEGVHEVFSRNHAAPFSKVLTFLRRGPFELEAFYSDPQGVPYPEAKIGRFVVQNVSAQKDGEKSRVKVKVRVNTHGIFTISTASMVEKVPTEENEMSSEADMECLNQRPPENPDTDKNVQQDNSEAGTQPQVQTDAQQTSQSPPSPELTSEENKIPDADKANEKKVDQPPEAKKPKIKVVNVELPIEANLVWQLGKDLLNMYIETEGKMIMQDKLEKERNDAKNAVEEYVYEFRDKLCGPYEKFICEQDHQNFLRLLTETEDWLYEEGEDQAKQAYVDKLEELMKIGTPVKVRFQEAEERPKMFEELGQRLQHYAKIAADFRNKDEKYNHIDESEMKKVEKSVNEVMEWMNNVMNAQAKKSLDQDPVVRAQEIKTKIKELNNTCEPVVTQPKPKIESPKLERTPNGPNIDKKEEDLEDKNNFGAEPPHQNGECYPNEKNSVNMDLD
T2 sequence (Q92598 whole entry, looked up): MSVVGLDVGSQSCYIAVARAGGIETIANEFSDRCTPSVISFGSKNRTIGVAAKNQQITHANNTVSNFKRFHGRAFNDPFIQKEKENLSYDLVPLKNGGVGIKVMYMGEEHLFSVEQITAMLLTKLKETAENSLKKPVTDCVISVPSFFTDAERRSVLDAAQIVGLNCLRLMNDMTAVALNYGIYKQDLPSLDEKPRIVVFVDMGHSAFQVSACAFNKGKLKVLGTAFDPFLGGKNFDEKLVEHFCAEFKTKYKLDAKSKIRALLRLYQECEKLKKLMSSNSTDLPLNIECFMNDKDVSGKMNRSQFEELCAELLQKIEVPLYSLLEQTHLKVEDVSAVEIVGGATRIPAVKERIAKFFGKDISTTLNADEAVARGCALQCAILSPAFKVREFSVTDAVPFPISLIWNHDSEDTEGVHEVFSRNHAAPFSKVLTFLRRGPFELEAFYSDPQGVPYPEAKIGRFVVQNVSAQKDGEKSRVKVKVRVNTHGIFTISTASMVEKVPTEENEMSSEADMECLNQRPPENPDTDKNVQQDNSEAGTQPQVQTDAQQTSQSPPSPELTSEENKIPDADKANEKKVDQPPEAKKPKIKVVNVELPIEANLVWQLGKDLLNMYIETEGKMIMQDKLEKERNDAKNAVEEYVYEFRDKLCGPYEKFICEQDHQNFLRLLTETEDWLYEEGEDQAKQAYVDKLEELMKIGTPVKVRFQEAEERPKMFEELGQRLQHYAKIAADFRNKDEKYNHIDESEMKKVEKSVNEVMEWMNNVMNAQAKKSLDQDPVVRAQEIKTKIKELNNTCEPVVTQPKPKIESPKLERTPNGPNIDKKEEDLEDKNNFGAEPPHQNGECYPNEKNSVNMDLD
T3 sequence (Q92598 2-858 limits assumed): as the sequence (Q92598 2-858 limits assumed, one chain of several) above

Consider `COc1ccc(-c2cnc(-c3cnc(-c4ccc(OC)c(OC)c4)c(C)c3)c(/C=C/c3ccccc3)c2)cc1OC` [compound 51, (E)-5,6′-Bis(3,4-dimethoxyphenyl)-5′-methyl-3-styryl-2,3′-bipyridine], for which the “percentage of interaction of STAT3:HSP110” value at HSP110:STAT3 complex was “not decrease”. The P-STAT3 level entry in the assay with phosphorylated STAT3 was “about 50%”.

Regarding `N#CCc1cccc(-c2cnc(Cl)c(/C=C/c3ccccc3)c2)c1` [compound 61, (E)-2-(3-(6-Chloro-5-styrylpyridin-3-yl)phenyl) acetonitrile, reference compound], the IC50 on human protein HSP110 worked out at 227.5 ± 1.9 µM. In addition, the “percentage of interaction of STAT3:HSP110” value at HSP110:STAT3 complex is “not decrease”. In addition, the P-STAT3 level in the assay on phosphorylated STAT3 came out at 100%. Moreover, the “cell death / apoptosis (Annexin V and 7-AAD marking)” value with CT26 cells is reported as “don't seem to be marked”. In addition, the HSP110/Myd88 interaction result on HSP110/Myd88 interaction is on record as “does not inhibit”.
